# In US4468511A, “C-20- And C-23-Modified macrolide derivatives” (Eli Lilly and Company, priority 1983, dated 1984):
# Read-outs that look alike come from different tables or passages of the source.
# Key:
# Escherichia coli EC14 = experiment: MIC, standard agar-dilution assay; type: cell-based
# Experimental: (§1) Certain of the derivatives are active against some gram-negative bacteria, such as Pasteurella species. The MIC's in Table II were determined by standard agar-dilution assays. The MIC's in Table III were obtained using a conventional broth-dilution microtiter test.
# Escherichia coli TEM = experiment: MIC, standard agar-dilution assay; type: cell-based
# Outline: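 Antibacterial activity toward the gram-negative organism Escherichia coli was assessed by conventional agar dilution. The MIC, reported in ug/mL, is the minimum compound concentration on agar that prevents growth.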
# [1] = test system: Klebsiella pneumoniae KAE; experiment: MIC, standard agar-dilution assay; type: cell-based
# Outline: (§2)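 Broth microdilution MICs cover P. hemolytica, P. multocida and M. gallisepticum. The agar-dilution MIC covers K. pneumoniae only.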
# [2] = test system: Klebsiella pneumoniae X26; experiment: MIC, standard agar-dilution assay; type: cell-based; settings: Klebsiella pneumoniae, X26
# Outline: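 Method depends on organism. Klebsiella pneumoniae was assayed on agar. Pasteurella spp. and Mycoplasma gallisepticum were assayed in broth microtiter dilution.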
# [3] = test system: Staphylococcus aureus V41; experiment: MIC, standard agar-dilution assay; type: cell-based; settings: Staphylococcus aureus, V41
# Experimental: as §1
# [4] = test system: Staphylococcus aureus X1.1; experiment: MIC, standard agar-dilution assay; type: cell-based; settings: Staphylococcus aureus, X1.1
# Outline: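 A standard agar-dilution assay was used to test compounds against the Staphylococcus aureus isolate X1.1. Bacterial growth on agar with different compound concentrations was assessed, and the minimum inhibitory concentration was recorded in ug/mL.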
# [5] = test system: Streptococcus Group D X66; experiment: MIC, standard agar-dilution assay; type: cell-based
# Experimental: as §1
# [6] = test system: Streptococcus pneumoniae Park I; experiment: MIC, standard agar-dilution assay; type: cell-based; settings: Streptococcus pneumoniae
# Experimental: as §1
# [7] = test system: Streptococcus pyogenes 9960; experiment: MIC, standard agar-dilution assay; type: cell-based; settings: 9960
# Experimental: as §1
# [8] = test system: Streptococcus pyogenes C203; experiment: MIC, standard agar-dilution assay; type: cell-based; settings: Streptococcus pyogenes, C203
# Experimental: as §1
# [9] = test system: Staphylococcus aureus X400; experiment: MIC, standard agar-dilution assay; type: cell-based; settings: Staphylococcus aureus, X400
# Experimental: (§3) The MIC's in Table II were determined by standard agar-dilution assays. The MIC's in Table III were obtained using a conventional broth-dilution microtiter test.
# [10] = test system: Staphylococcus epidermidis EPI2; experiment: MIC, standard agar-dilution assay; type: cell-based; settings: Staphylococcus epidermidis, EPI2
# Experimental: as §3
# [11] = test system: Staphylococcus aureus S13E; experiment: microbe, parasite or virus in culture; type: cell-based
# Experimental: as §3
# [12] = test system: Staphylococcus epidermidis EPI1; experiment: microbe, parasite or virus in culture; type: cell-based; settings: Staphylococcus epidermidis, EPI1
# Experimental: as §3
# [13] = test system: Mycoplasma gallisepticum 34159; experiment: MIC, conventional broth-dilution microtiter test; type: cell-based; settings: Mycoplasmoides gallisepticum
# Outline: as §2
# [14] = test system: Mycoplasma gallisepticum 41313; experiment: MIC, conventional broth-dilution microtiter test; type: cell-based; settings: Mycoplasmoides gallisepticum
# Outline: as §2
# Mycoplasma gallisepticum = experiment: MIC, conventional broth-dilution microtiter test; type: cell-based; settings: Mycoplasmoides gallisepticum
# Outline: as §2
# Mycoplasma hyorhinis = experiment: MIC, conventional broth-dilution microtiter test; type: cell-based; settings: Mycoplasma
# Outline: (§4)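 Two formats were used. Broth dilution in microtiter plates served for Pasteurella and Mycoplasma, while agar dilution served for Klebsiella.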
# Mycoplasma synoviae = experiment: MIC, conventional broth-dilution microtiter test; type: cell-based; settings: Mycoplasmopsis synoviae
# Outline: as §4
# [15] = test system: Pasteurella hemolytica 22C; experiment: MIC, conventional broth-dilution microtiter test; type: cell-based
# Outline: as §2
# [16] = test system: Pasteurella hemolytica 23C; experiment: MIC, conventional broth-dilution microtiter test; type: cell-based
# Outline: as §2
# [17] = test system: Pasteurella hemolytica 41D; experiment: MIC, conventional broth-dilution microtiter test; type: cell-based
# Outline: as §2
# [18] = test system: Pasteurella multocida 17E; experiment: MIC, conventional broth-dilution microtiter test; type: cell-based; settings: Pasteurella multocida, 17E
# Outline: as §2
# [19] = test system: Pasteurella multocida 22A; experiment: MIC, conventional broth-dilution microtiter test; type: cell-based; settings: Pasteurella multocida, 22A
# Outline: as §2
# [20] = test system: Pasteurella multocida 40G; experiment: MIC, conventional broth-dilution microtiter test; type: cell-based; settings: Pasteurella multocida, 40G
# Outline: as §2
# [21] = test system: Pasteurella multocida 60A; experiment: MIC, conventional broth-dilution microtiter test; type: cell-based; settings: Pasteurella multocida, 60A
# Outline: as §2
# [22] = test system: Pasteurella multocida 68C; experiment: MIC, conventional broth-dilution microtiter test; type: cell-based; settings: Pasteurella multocida, 68C
# Outline: as §2
# Staphylococcus aureus = experiment: MIC, conventional broth-dilution microtiter test; type: cell-based
# Experimental: as §1
# Streptococcus sp. 80 = experiment: MIC, conventional broth-dilution microtiter test; type: cell-based; settings: Streptococcus, SP.80
# Experimental: as §1
# [23] = test system: Streptococcus pyogenes C203; experiment: Protection of mice experimentally infected with S. pyogenes C203; type: in vivo
# Experimental: Some of the derivatives of this invention have shown in vivo antimicrobial activity against experimentally-induced infections in laboratory animals. When two doses of test compound were administered to mice experimentally infected with S. pyogenes C203, the activity observed was measured as an ED50 value [effective dose in mg/kg to protect 50% of the test animals: see Warren Wick, et al., J. Bacteriol. 81, 233-235 (1961)].
# Pasteurella multocida = experiment: Pasteurella infection in one-day old chicks; type: in vivo; settings: subcutaneous, 30 mg/kg × 2, 1 and 4 hours post-challenge
# Experimental: Certain of the formula 1 compounds of this invention have also shown in vivo activity against infections induced by gram-negative bacteria. Table V summarizes the results of tests in which illustrative compounds were evaluated against a Pasteurella infection in one-day old chicks. The compounds were administered parenterally after challenge of the chicks with Pasteurella multocida (0.1 ml of a 10^-4 dilution of a twenty-hour tryptose broth culture of an avian P. multocida given subcutaneously). In these tests, unless indicated otherwise, all non-medicated infected chicks died within 24 hours of Pasteurella challenge. In the tests summarized in Table V, the compounds were administered by subcutaneous injection at a dosage of 30 mg/kg, 1 and 4 hours post-challenge of the chicks with P. multocida.
# [24] = test system: Haemophilus influenzae 76; experiment: MIC, standard agar-dilution assay; type: cell-based; settings: agar-dilution; Haemophilus influenzae 76, Ampicillin-resistant strain; read-out: MIC
# Experimental: as §3
# [25] = test system: Haemophilus influenzae C.L.; experiment: MIC, standard agar-dilution assay; type: cell-based; settings: Haemophilus influenzae
# Experimental: as §3
Structure (SMILES),MIC [2],MIC [3],MIC [4],MIC [5],MIC [6],MIC [7],MIC [8],MIC [9],MIC [10],MIC [11],MIC [12],MIC (Mycoplasma gallisepticum),MIC (Mycoplasma hyorhinis),MIC (Mycoplasma synoviae),MIC [18],MIC [19],MIC [20],MIC [21],MIC [22],MIC (Staphylococcus aureus),further results
"CCC1OC(=O)CC(O)C(C)C(OC2OC(C)C(O)C(N(C)C)C2O)C(CCOC(=O)Cc2ccccc2)CC(C)C(=O)C=CC(C)=CC1COC(=O)Cc1ccccc1 (centres unmarked) [Compound 30, 20,23-Di-O-Phenylacetyl-20-dihydro-OMT]",8 µg/mL,0.25 µg/mL,0.25 µg/mL,0.5 µg/mL,0.12 µg/mL,0.5 µg/mL,0.25 µg/mL,0.5 µg/mL,0.5 µg/mL,0.25 µg/mL,0.25 µg/mL,0.78 µg/mL,50 µg/mL,6.25 µg/mL,12.5 µg/mL,6.25 µg/mL,6.25 µg/mL,6.25 µg/mL,6.25 µg/mL,1.56 µg/mL,"MIC (Escherichia coli EC14; Escherichia coli, EC14): > 128 µg/mL; MIC (Escherichia coli TEM; Escherichia coli): 8 µg/mL; MIC ([1]; Klebsiella pneumoniae): > 128 µg/mL; MIC [13]; 34159: 12.5 µg/mL; MIC [14]; 41313: 50 µg/mL; MIC ([15]; Pasteurella, 22C): 6.25 µg/mL; MIC ([16]; Pasteurella, 23C): 6.25 µg/mL; MIC ([17]; Pasteurella, 41D): 6.25 µg/mL; MIC (Streptococcus sp. 80): 0.39 µg/mL; ED50 ([23]; C203, po, read-out: ED50 Oral): > 100 mg/kg; ED50 ([23]; C203, sc, read-out: ED50 Subcutaneous): > 30 mg/kg; Number of Deaths/Number Treated (Pasteurella multocida): 9/10"
"CCC1OC(=O)CC(O)C(C)C(OC2OC(C)C(O)C(N(C)C)C2O)C(CCOc2ccccc2)CC(C)C(=O)C=CC(C)=CC1COC(=O)CCc1ccccc1 (centres unmarked) [Compound 33, 20-O-Phenyl-20-dihydro-23-O-phenylpropionyl-OMT]",32 µg/mL,1 µg/mL,1 µg/mL,1 µg/mL,0.5 µg/mL,2 µg/mL,2 µg/mL,2 µg/mL,1 µg/mL,1 µg/mL,1 µg/mL,0.78 µg/mL,50 µg/mL,6.25 µg/mL,3.12 µg/mL,3.12 µg/mL,3.12 µg/mL,3.12 µg/mL,3.12 µg/mL,0.78 µg/mL,"MIC (Escherichia coli EC14; agar-dilution, Escherichia coli EC14, read-out: MIC): > 128 µg/mL; MIC (Escherichia coli TEM; agar-dilution, Escherichia coli TEM, read-out: MIC): > 128 µg/mL; MIC ([1]; agar-dilution, Klebsiella pneumoniae KAE, read-out: MIC): > 128 µg/mL; MIC [24]: > 128 µg/mL; MIC [25]: 128 µg/mL; MIC ([13]; broth-dilution microtiter, Mycoplasma gallisepticum 34159, Resistant strain, read-out: MIC): 12.5 µg/mL; MIC ([14]; broth-dilution microtiter, Mycoplasma gallisepticum 41313, Resistant strain, read-out: MIC): 25 µg/mL; MIC ([15]; broth-dilution microtiter, Pasteurella hemolytica 22C, read-out: MIC): 25 µg/mL; MIC ([16]; broth-dilution microtiter, Pasteurella hemolytica 23C, read-out: MIC): 25 µg/mL; MIC ([17]; broth-dilution microtiter, Pasteurella hemolytica 41D, read-out: MIC): 25 µg/mL; MIC (Streptococcus sp. 80): 0.097 µg/mL; ED50 ([23]; C203, mice, oral, mg/kg × 2, doses given 1 and 4 hours postinfection, read-out: ED50 Oral): > 50 mg/kg; ED50 ([23]; C203, sc, mice, subcutaneous, mg/kg × 2, doses given 1 and 4 hours postinfection, read-out: ED50 Subcutaneous): > 10 mg/kg"
